Results: PMC4156305, “Structure Driven Design of Novel Human Ether-A-Go-Go-Related-Gene Channel (hERG1) Activators” (PLoS ONE, 2014)
Entries after “also recorded” stand apart in the source; their conditions may differ.

Key:
Assay type in all cases: cell-based
[1] = biological target: T1, hERG1 (Homo sapiens, UniProt Q12809); assay: Whole cell patch-clamp of hERG1 currents in transfected HEK 293 cells; parameters: Inactivation ΔV0.3: unit not given here; conditions: for Deactivation Δλ/λcon: deactivation time constant relative to baseline; for Activation V1/2 (mV): shift in voltage-dependence of activation; for Inactivation ΔV0.3: shift in voltage-dependence of inactivation; for Amplitude I/Icon: tail current relative to baseline
T1 construct: expressed in transfected cells; host or cells: HEK 293
Description: (§1) Transfected HEK cells on glass cover slips were placed in a chamber mounted on a modified stage of an inverted microscope. The chamber was superfused at a rate of 2 mL/min with a normal external solution. The extracellular solution contained (in mM) NaCl 140, KCl 5.4, CaCl2 1, MgCl2 1, HEPES 5, glucose 5.5, pH 7.4, with NaOH. Micropipettes were pulled from borosilicate glass capillary tubes on a programmable horizontal puller (Sutter Instruments, Novato, CA). Standard patch-clamp methods were used to measure the whole cell currents of hERG1 mutants expressed in HEK 293 cells using the AXOPATCH 200B amplifier (Axon Instruments). Unless otherwise indicated, tail currents were recorded when the voltage was returned to −50 mV from +50 mV. Further details on electrophysiological methods are collected in Methods S1.
(§2) Electrophysiology Protocol:
(§3) The pipette solution contained the following (at mM concentration): KCl 10, K-aspartate 110, MgCl2 5, Na2ATP 5, EGTA 10, HEPES 5, and CaCl2 1. The solution was adjusted to pH 7.2 with KOH. The extracellular solution contained the following (at mM concentration): NaCl 140, KCl 5.4, CaCl2 1, MgCl2 1, HEPES 5, and glucose 5.5. The solution was adjusted to pH 7.4 with NaOH. For IKr measurements, the whole cell configuration of the patch clamp method was used. The series resistance was less than 7
(§4) MΩ. The data were sampled at 1 kHz. The holding potential was -80 mV. The activation of hERG tail currents was induced by depolarization to a range of potentials from +50 to -100 mV in 10 mV steps for 1 second. This was followed by repolarization to -100 mV for 1 second to record the tail currents.
(§5) -100 mV, a -120 mV 1 second pre-pulse was applied to completely close the hERG channels before subsequent depolarization. All of the tail currents reported in this manuscript represent dofetilide-sensitive currents. The inactivation of hERG was measured by a previously reported triple-pulse protocol5, 6. The holding potential was -80 mV. The hERG channel was first depolarized to +50 mV for 1 second. Recovery from inactivation was achieved using a short pulse (a 10 ms hyperpolarization) to -120 mV, followed by the application of test pulses from -100 to 0 mV for 1 second in 10 mV steps.
(§6) A voltage of -100 mV was selected because it was on the flat part of the inactivation-voltage relationship. The methods employed are identical to ones previously reported. […]

[2] = tested on: fetal mouse ventricular myocytes; assay: Action potential recordings in neonatal (day 1) / fetal mouse ventricular myocytes; conditions: listed as MC-II-157c
Description: (§7) Action potentials were recorded from neonatal (day 1) mouse ventricular myocytes as previously reported. Although IKr has little physiologic importance to the action potential of the adult rodent heart, we previously reported that IKr is the dominant repolarizing current in day 1 neonatal myocytes, with little or no IKs. Thus, these neonatal cells are well suited to assess the physiologic relevance of blockade of IKr to the action potential characteristics. In contrast, to address the possibility that compounds inadvertently interact with other channels, action potentials were recorded from adult cardiac myocytes. Myocytes on glass coverslips were placed in a chamber mounted on a modified stage of an inverted microscope.

[3] = biological target: T2, hERG1 E544L (Homo sapiens, UniProt Q12809, E544L); assay: Whole cell patch-clamp of hERG1 E544L mutant; conditions: 10 µM
T2 construct: expressed in transfected cells; host or cells: HEK 293
Description: as §1, §2, §3, §4, §5, §6

[4] = biological target: T3, cardiac sodium current (INa) (Mus musculus, UniProt Q9JJV9); assay: Patch clamp of INa in neonatal cardiomyocytes
T3 construct: endogenous in cells; host or cells: neonatal (day 1) mouse ventricular cardiomyocytes
T3 sequence (Q9JJV9 whole entry): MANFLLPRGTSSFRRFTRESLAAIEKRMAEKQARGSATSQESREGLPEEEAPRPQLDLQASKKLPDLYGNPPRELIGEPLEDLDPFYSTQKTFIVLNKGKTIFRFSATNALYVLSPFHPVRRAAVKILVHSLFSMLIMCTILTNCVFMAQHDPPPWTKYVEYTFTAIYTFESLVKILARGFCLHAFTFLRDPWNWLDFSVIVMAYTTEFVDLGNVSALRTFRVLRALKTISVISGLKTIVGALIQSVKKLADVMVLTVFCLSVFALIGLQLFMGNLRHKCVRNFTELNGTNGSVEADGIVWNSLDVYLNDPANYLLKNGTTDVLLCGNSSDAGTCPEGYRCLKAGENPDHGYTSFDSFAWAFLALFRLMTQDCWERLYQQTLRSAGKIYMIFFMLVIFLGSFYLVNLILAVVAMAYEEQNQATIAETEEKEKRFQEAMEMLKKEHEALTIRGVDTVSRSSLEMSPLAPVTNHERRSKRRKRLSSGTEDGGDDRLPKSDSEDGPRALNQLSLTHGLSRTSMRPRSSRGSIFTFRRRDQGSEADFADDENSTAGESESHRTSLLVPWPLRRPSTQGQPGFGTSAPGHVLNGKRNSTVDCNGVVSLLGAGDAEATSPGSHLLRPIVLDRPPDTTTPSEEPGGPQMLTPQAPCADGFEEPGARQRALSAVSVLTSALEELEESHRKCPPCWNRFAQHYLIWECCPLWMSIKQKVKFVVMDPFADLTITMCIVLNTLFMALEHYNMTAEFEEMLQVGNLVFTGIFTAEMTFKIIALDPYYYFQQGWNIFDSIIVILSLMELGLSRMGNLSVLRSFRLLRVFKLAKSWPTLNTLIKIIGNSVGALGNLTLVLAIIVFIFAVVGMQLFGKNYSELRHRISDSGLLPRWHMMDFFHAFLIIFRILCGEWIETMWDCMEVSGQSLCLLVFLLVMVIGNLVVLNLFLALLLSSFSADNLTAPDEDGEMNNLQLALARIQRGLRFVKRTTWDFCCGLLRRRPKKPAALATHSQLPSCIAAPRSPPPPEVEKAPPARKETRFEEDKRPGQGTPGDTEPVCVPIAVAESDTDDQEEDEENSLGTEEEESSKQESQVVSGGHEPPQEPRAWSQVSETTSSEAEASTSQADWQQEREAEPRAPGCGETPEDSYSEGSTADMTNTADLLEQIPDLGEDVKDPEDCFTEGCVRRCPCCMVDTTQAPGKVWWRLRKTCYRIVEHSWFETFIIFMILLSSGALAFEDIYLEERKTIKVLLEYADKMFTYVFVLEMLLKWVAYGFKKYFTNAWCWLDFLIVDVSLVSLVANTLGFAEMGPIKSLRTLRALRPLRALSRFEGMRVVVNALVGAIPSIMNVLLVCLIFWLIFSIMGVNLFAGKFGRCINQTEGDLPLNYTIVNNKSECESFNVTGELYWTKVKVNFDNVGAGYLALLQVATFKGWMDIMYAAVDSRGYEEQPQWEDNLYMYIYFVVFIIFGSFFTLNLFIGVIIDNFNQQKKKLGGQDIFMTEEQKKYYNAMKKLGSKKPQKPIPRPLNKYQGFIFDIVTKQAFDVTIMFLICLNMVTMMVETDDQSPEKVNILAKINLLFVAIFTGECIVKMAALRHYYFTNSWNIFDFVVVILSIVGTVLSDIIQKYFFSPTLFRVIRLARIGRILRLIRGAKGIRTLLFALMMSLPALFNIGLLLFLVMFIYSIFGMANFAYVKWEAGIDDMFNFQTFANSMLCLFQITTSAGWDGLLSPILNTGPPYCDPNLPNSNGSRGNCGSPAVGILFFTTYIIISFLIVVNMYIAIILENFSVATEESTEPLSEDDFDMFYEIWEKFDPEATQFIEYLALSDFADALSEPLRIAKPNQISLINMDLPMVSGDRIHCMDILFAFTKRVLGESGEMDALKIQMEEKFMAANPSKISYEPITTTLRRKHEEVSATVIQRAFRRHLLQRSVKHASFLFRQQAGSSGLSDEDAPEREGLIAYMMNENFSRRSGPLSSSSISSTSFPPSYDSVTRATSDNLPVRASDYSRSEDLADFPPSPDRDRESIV
Description: as §7
Figure 10 Drug effect on action potential in cardiomyocytes. Panel A. The effect of 20 µM and 3 µM Panel B. MC-II-157c on action potentials neonatal cardiomyocytes. […] In patch clamp studies, the INa was induced by depolarizations to −30 mV from holding potentials of −100 mV. The light traces are baseline and bold traces were recorded with MC-II-157c.

[5] = Conc. 3 µM, listed as MC-II-157c
[6] = Conc. 10 µM, listed as MC-II-157c

concentrations at which INa is blocked [4]: > 20 µM
Compound: C[C@H](NCc1ccc(C(F)(F)F)cc1)C(=O)NC(=O)Nc1cc(C(F)(F)F)ccc1O [Compound 5]
lower drug concentration at which effects on deactivation were still manifest [1]: ~2 µM | Deactivation Δλ/λcon ([1]; Conc. 1 µM): 0.2±0.1 | Activation V1/2 (mV) ([1]; Conc. 1 µM): −2±0.0 mV | Inactivation ΔV0.3 ([1]; Conc. 1 µM): 1.3±0.9 | Amplitude I/Icon ([1]; Conc. 1 µM): 0.95±0.02 | Deactivation Δλ/λcon ([1]; Conc. 3 µM): 0.8±0.1 | Deactivation Δλ/λcon [1, 5]: slows deactivation; also recorded: modest slowing of deactivation | Activation V1/2 (mV) ([1]; Conc. 3 µM): −6.5±0.5 mV | Activation V1/2 (mV) [1, 5]: does shift voltage dependence of activation; also recorded: shifting V1/2 of activation to hyperpolarized potentials | Inactivation ΔV0.3 ([1]; Conc. 3 µM): 1±1 | Amplitude I/Icon ([1]; Conc. 3 µM): 1.1±0.04 | Amplitude I/Icon [1, 5]: significantly increased the tail-current amplitude; also recorded: increases tail current amplitude; also recorded: modest increase in tail current amplitude | Deactivation Δλ/λcon ([1]; Conc. 10 µM): 3.3±1.3 | Activation V1/2 (mV) ([1]; Conc. 10 µM): −14±3.6 mV | Inactivation ΔV0.3 ([1]; Conc. 10 µM): 14.0±2.7 | Inactivation ΔV0.3 [1, 6]: shifts voltage-dependence of inactivation to depolarized potentials | Amplitude I/Icon ([1]; Conc. 10 µM): 0.88±0.1 | Amplitude I/Icon [1, 6]: 0.88 | Deactivation Δλ/λcon ([1]; Conc. 20 µM): 3.5±0.2 | Activation V1/2 (mV) ([1]; Conc. 20 µM): −15.3±4.1 mV | Inactivation ΔV0.3 ([1]; Conc. 20 µM): +9.3±2.0 | Amplitude I/Icon ([1]; Conc. 20 µM): 0.86±0.1 | Deactivation Δλ/λcon ([1]; Conc. 50 µM): 4.5±0.1 | Activation V1/2 (mV) ([1]; Conc. 50 µM): −27.5±3.5 mV | Inactivation ΔV0.3 ([1]; Conc. 50 µM): 26±1 | Amplitude I/Icon ([1]; Conc. 50 µM): 0.83±0.1 | magnitude of the effects on activation and deactivation, greater than previously reported with NS1643 ([1]; relative to NS1643): 6-10 fold | action potential duration ([2]; 3 µM): significantly shortened action potential duration | upstroke of the action potential, overshoot potential and excitability threshold ([2]; 20 µM): affected the upstroke of the action potential, the overshoot potential and the excitability threshold; also recorded: decreased the upstroke dV/dt of the action potential, the overshoot potential and excitability threshold | response in amplitude of the tail current in E544L versus WT [3]: markedly diminished | pharmacologic responses (shift in voltage-dependence of activation, slowing of deactivation) in E544L versus WT ([3]; listed as MC-II-157c): significantly and substantially less pharmacologic responses; also recorded: significantly and substantially reduced | blockade of the sodium current (INa) ([4]; 20 µM, listed as MC-II-157c): blocks a cardiac sodium channel; also recorded: substantially blocks INa
